These results are taken from a melting point compilation (Tetko et al.; mined from patent text by program, amines drawn as free bases though some values may be those of a salt).

Structures are written as SMILES. A value given as a limit tells only on which side of the number the result lay.

As a reminder, the melting point is the temperature of the solid-liquid transition. For the compound `O=C(O)COc1c(Br)cc2oc(C(=O)c3ccccc3)cc2c1Br`, the melting point lay in the range of 179 to 181 °C. `O=c1[nH]c(=O)n(C2OC(CO)C(O)C2F)cc1C=CBr` (stereo not drawn) yielded a melting point of 80 to 83 °C.

For `CCOC(=O)C(=CNc1ncnc2ccc(NC(=O)C(CC)CC)cc12)C(=O)OCC`, the melting point lay within 191 to 194 °C. The same measure for `Oc1cc(O)cc(OCc2ccccc2)c1`: 85 to 86 °C; for `CCOc1cc(-n2nc(C(=O)O)cc2-c2ccc(-c3ccco3)cc2)ccc1S(C)(=O)=O`: 256 to 257 °C; for `Cc1c(N)c([N+](=O)[O-])cc(F)c1F`: 87.2 to 88 °C. The same measure for `CCCc1ncc(CO)c(NCc2ccc(-c3ccccc3-c3nnnn3C(c3ccccc3)(c3ccccc3)c3ccccc3)cc2)n1`: 134 to 137 °C. For the compound `NNC(=O)OCCOc1ccc(C(=O)c2ccccc2)c(O)c1`, the melting point was in the range of 58 to 61 °C. The same measure for `Fc1cc2c(cc1F)Sc1cc(F)c(F)cc1S2`: 108 °C; for `COc1ccc(S(=O)(=O)N(CC#N)c2ccc(Cl)cc2C(=O)c2ccccc2Cl)cc1OC`: 164 °C. Under `CC(=O)Nc1ccc(OCC2CCN(c3ccncc3)CC2)cc1` stands 226 to 228 °C. Under `CCCC(=O)c1ccc(OCCN2CCN(c3cc(Cl)nnc3Cl)CC2)cc1` stands 140 to 141 °C. In turn, `COC(=O)Nc1ccc(C(=O)OC)cc1` had a melting point of 177 to 178 °C.

`Cc1nc(N)c2nc(CO)n(NCc3cccnc3)c2c1C` yielded a melting point of 258 to 260 °C. `Cn1c(=O)c2c(ncn2C(=O)CCC(=O)n2cnc3c2c(=O)n(C)c(=O)n3C)n(C)c1=O` gave a melting point of 266 °C.

In the case of `CCc1nc(-c2ccc(OCCCc3cccnc3)cc2)no1`, the melting point was 63 to 64 °C. The compound `COC(=O)Cc1csc(NS(=O)(=O)c2cccc(Cl)c2C)n1` displayed a melting point of 187 °C.

For the compound `CCCCNC(=O)Nc1ccc(N(CCC)CCC)cc1C(=O)NCC1CCN(C(c2ccccc2)c2ccccc2)CC1`, the melting point was 172 °C. `CC1c2ccccc2CC(C)(O)Cc2ccccc21` (stereo not drawn) registered a melting point of 100 to 135 °C. Under `Cc1csc(-c2nnc(NC(C)c3ccccc3)c3ccccc23)c1` (stereo not drawn) stands 118 to 121 °C. As for `CCn1cnc(=O)c(-c2cccc(C(F)(F)F)c2)c1`, the melting point fell in the range of 172 to 173 °C.

Consider `CC1(C)C(=O)Nc2ccc(-c3cccc(Cl)c3)cc21`, for which the melting point was 188 to 189 °C.

In the case of `COC(=O)c1cccc(Cl)c1N`, the melting point worked out at 36 °C. The same measure for `Cc1cnc2c(-c3nc[nH]n3)c(Cl)ccc2c1`: 274 to 276 °C. Under `CC1CCc2c(c3cc(Br)ccc3n2C(=O)OC(C)(C)C)C1` (stereo not drawn) stands 122 °C. The same measure for `O=C1NC(=O)C(CC#Cc2ccc(Cl)cc2)(S(=O)(=O)c2ccccn2)S1` (stereo not drawn): 140 to 141 °C; for `CN1CC(CCCl)Oc2ccccc2C1=S` (stereo not drawn): 105 to 108 °C; for `COc1ncnc(-c2cc(NS(C)(=O)=O)c(Cl)cc2Cl)c1C#N`: 160 to 162 °C. For the compound `CCc1cccc(-c2cnc3[nH]cc(C(=O)C(C)(C)C)c3n2)c1`, the melting point fell in the range of 199 to 200 °C. Consider `CC(=O)OCC1=C(C(=O)OC(C)(C)C)N2C(=O)C(NC(=O)CC3=CSCCS3)C2SC1` (stereo not drawn), for which the melting point is 80 °C.

For `CC=CC(=O)Nc1n[nH]c2cc(Br)ccc12`, the melting point turned out to be 232 °C. Under `Cc1cc(N)cc2c1NC(=O)CC2C` (stereo not drawn) stands 207 to 210 °C.

Regarding `O=c1cc(-c2ccncn2)nc2n1CCCCC2`, the melting point lay in the range of 148 to 150 °C. In turn, `CS(=O)(=O)c1ccc(-n2nc(CCCO)cc2-c2ccccc2)cc1` registered a melting point of 120 to 123 °C. As for `O=C(O)Cc1c(Sc2ccccc2)c2cc(F)ccc2n1Cc1ccc(Cl)cc1`, the melting point turned out to be 168 °C. `Cc1ccc(N)c(C)c1C1OCCO1` yielded a melting point of 100 to 103 °C.

For `CCOC(=O)C1=Cc2cc(I)ccc2OC1C(F)(F)F` (stereo not drawn), the melting point was in the range of 105 to 106 °C. For the compound `CC1=Cc2cc(C#N)ccc2OC1(C)C`, the melting point was found to be 55 °C. The same measure for `C=C1SC(=O)N(c2ccc3cc(-c4ccc(OC)c(-c5ccccc5)c4)ccc3c2)C1=O`: 221 to 224 °C; for `CC(C)C(c1cc(Cl)ccc1N1CCCCC1)C(C(N)=O)c1ccc(C(=O)O)cc1` (stereo not drawn): 236 to 240 °C; for `O=C(O)COc1ccccc1OCCC(c1ccccc1)(c1ccccc1)c1ccccc1`: 137 to 139 °C. The same measure for `CS(=O)(=O)NCC1CC2C=CC1C2` (stereo not drawn): 60 to 62 °C; for `CC(Oc1ccc(C#N)cc1)c1ccnc2ncnn12` (stereo not drawn): 163 to 164 °C; for `COc1ccc(C(=O)Cc2ccncc2)cc1OC1CCCC1`: 102 to 103 °C. The same measure for `O=C1NC(=O)C(c2cn3c4c(cccc24)CC3)C1c1c[nH]c2ccccc12` (stereo not drawn): 144 to 148 °C; for `CC1(C)CCC(C)(C)c2cc(NC(=O)c3ccc(C(=O)O)cc3O)ccc21`: 286 to 287 °C; for `COc1ccc2[nH]c(SCc3nccc(N4CCOCC4)n3)nc2c1`: 188 to 192 °C. For `CC(=O)c1ccc([N+](=O)[O-])c(Nc2cccc(-c3cccnc3)c2)c1`, the melting point fell in the range of 112 to 113 °C.

`CC1(C)OC(=O)C(c2ccc3sccc3c2)O1` (single isomer, unassigned; (-)) showed a melting point of 116 to 117 °C. Under `COC(=O)c1ccc(Cl)cc1NC(=O)CSc1nc2ccccc2s1` stands 117 to 120 °C; under `CCCCOc1cc(/C=C(\OCC)C(=O)O)ccc1OCCc1ccc(OCC)c(F)c1`, 119 °C; under `Cc1cccnc1C(=O)c1[nH]c2cc(Cl)ccc2c1NC(=O)CC(C)C`, 142 to 144 °C. `Cc1cc2c(-c3cccc(Br)c3)c(CC(=O)Nc3ccc(F)cc3C(F)(F)F)c(=O)oc2cc1Cl` registered a melting point of 222 to 223 °C. Under `O=C(Nc1ccc(OCc2ccoc2)c2ccccc12)c1cc(F)cc(N2CCCCC2)c1` stands 152 to 153 °C; under `CCCN(c1ncnc2[nH]cnc12)n1ccc2ccccc21`, 90 to 95 °C; under `Cn1cc(F)cnc1=O`, 177 to 178 °C. The same measure for `CC(=O)c1cc(Cl)sc1S(N)(=O)=O`: 178 to 179 °C. Compound `O=C(O)Cc1cc(C(=O)c2cccc(C(=O)O)c2)ccc1O` registered a melting point above 260 °C. The same measure for `CN1C(=O)C(C)(C)C(=O)Nc2cc(C#N)ccc21`: 289 to 294 °C. Take `Cc1oc(-c2ccccc2)nc1COc1ccc(COc2nn(Cc3ccc(OCc4nc(-c5ccccc5)oc4C)cc3)cc2C=O)cc1`: the melting point was in the range of 155 to 156 °C. On to `CC(C)S(=O)(=O)C(C#N)=C(Nc1cc(C(F)(F)F)cc(C(F)(F)F)c1)NC1CCCC1`, for which the melting point fell in the range of 172 to 173 °C. The same measure for `O=C(CCn1c2ccc(O)cc2c2c3c(c(-c4ccccc4Cl)cc21)C(=O)NC3=O)NS(=O)(=O)c1ccccc1`: 291 to 293 °C.

As to `CS(=O)(=O)c1ccc(-c2oc3ccccc3c(=O)c2-c2cccc(F)c2)cc1`, the melting point stood at 225 °C. Under `CCOC(=O)Cn1nc2ccc(NCCCN3CCC(OC(c4ccccc4)c4ccccc4)CC3)nn2c1=O` stands 137 to 139 °C. Under `O=S(=O)(NC1CC1)c1ccc(Nc2nc(OCC3CCCCC3)c3nc[nH]c3n2)cc1` stands 220 to 221 °C; under `CCOC(=O)C(=CNc1ccccc1OC)C(C)=O`, 103 to 105 °C; under `Cc1cc(C)c(N(C)C(=O)CN2C(=O)c3ccccc3C2=O)c(C)c1CO`, 254 to 256 °C. Under `CS(=O)(=O)c1ccc(-c2cnn(-c3ccc(F)c(F)c3)c(=O)c2-c2cccc(F)c2)cc1` stands 182 to 185 °C.

As for `CN(C)CCOC(=O)C(=O)c1ccc(OCCOc2ccc3ccccc3c2)cc1`, the melting point lay in the range of 93 to 94 °C. `O=C(OCCn1c(-c2ccccc2)nc2cc(CN3CCN(C(c4ccccc4)c4ccccc4)CC3)ccc21)c1ccccc1` yielded a melting point of 164 °C. Under `CCc1cc(Nc2ccccc2)cc(CC)c1N` stands 42 to 44 °C; under `CC(C)Oc1ccc(C(=O)n2nc(Nc3ccc(OCc4ccccc4)cc3)nc2N)cc1`, 79 to 81 °C. Take `Nc1c2c(nc3cnccc13)CCCC2=O`: the melting point was in the range of 237 to 242 °C. Compound `COc1ccc(C(C)(C)C)c(O)c1-c1nc2cc(S(=O)(=O)C(F)(F)F)ccc2[nH]1` yielded a melting point of 55 to 56 °C. Turning to `CCOC(=O)c1cn(C2CC2)c2cc(F)c(F)c(N(Cc3ccccc3)C(C)=O)c2c1=O`, the melting point lay within 147 to 150 °C.

Turning to `Cc1ccc(NC(=O)c2ccc3c(c2)C(=O)N(c2c(C)cccc2C)C3=O)cc1C`, the melting point fell in the range of 223 to 225 °C. The same measure for `COc1ccc(CC2CCc3ncc(C)cc3C2=O)cc1` (stereo not drawn): 92 to 93 °C; for `Cc1cccc(C(=O)C(=O)c2ccccc2)c1C`: 61.5 to 62.5 °C.

As for `COC(=O)[C@H](CSCc1ccccc1)NC(=O)Nc1n[nH]c(=S)s1`, the melting point lay within 169 to 172 °C.

The compound `O=C(O)C(=O)N1CCC(=Cc2ccccc2)CC1` gave a melting point of 125 °C.

Take `CCOP1(=S)OCc2cc(C)cnc2O1` (stereo not drawn): the melting point fell in the range of 54 to 55 °C. Under `O=S(=O)(NCc1ccccc1)c1cc(F)c2cccnc2c1O` stands 186 °C. For `CNc1nc(-c2ccc(F)cc2)cc(C(C)C)n1`, the melting point was in the range of 75 to 76 °C. Under `NNc1nc2ccc(C(F)(F)F)cc2n(OCc2ccccc2)c1=O` stands 174 to 176 °C.

In turn, `CCCCc1nc(N)cc(=O)[nH]1` displayed a melting point of 242 to 245 °C.

For `O=C(NC[C@@H]1CN2C(=O)C[C@H]2O1)C1CCCCC1` (racemic), the melting point lay in the range of 83 to 85 °C. In turn, `O=c1oc(-c2ccc(Oc3ccccc3)cc2)cc(O)c1SCCc1ccccc1` registered a melting point of 127 to 128 °C. The same measure for `CCOC(=O)c1ccc(N=C(Nc2ccc(C(=O)OCC)cc2)c2ccc(OC)cc2)cc1`: 145 to 146 °C.
